Legend:
[1] = biological target: Muscarinic acetylcholine receptor M5 (Homo sapiens) (UniProt P08912); assay: hM5 Cerep panel; conditions: Compound concentration 10.0 uM
[2] = biological target: Tyrosine-protein kinase Fer (Homo sapiens) (UniProt P16591); assay: fer (fps/fes related) tyrosine kinase Millipore kinase panel; conditions: Compound concentration 10.0 uM
[3] = biological target: Dual 3',5'-cyclic-AMP and -GMP phosphodiesterase 11A (Homo sapiens, UniProt Q9HCR9); assay: hPDE11A4 PDE scan
[4] = biological target: PAS domain-containing serine/threonine-protein kinase (Homo sapiens) (UniProt Q96RG2); assay: PAS domain containing serine/threonine kinase Millipore kinase panel; conditions: Compound concentration 10.0 uM
[5] = biological target: Delta-type opioid receptor (Homo sapiens) (UniProt P41143); assay: hOP1 Cerep panel; conditions: Compound concentration 10.0 uM
[6] = biological target: Ephrin type-A receptor 3 (Homo sapiens) (UniProt P29320); assay: EPH receptor A3 Millipore kinase panel; conditions: Compound concentration 10.0 uM
Ephrin type-A receptor 3 (Homo sapiens), sequence (P29320 whole entry): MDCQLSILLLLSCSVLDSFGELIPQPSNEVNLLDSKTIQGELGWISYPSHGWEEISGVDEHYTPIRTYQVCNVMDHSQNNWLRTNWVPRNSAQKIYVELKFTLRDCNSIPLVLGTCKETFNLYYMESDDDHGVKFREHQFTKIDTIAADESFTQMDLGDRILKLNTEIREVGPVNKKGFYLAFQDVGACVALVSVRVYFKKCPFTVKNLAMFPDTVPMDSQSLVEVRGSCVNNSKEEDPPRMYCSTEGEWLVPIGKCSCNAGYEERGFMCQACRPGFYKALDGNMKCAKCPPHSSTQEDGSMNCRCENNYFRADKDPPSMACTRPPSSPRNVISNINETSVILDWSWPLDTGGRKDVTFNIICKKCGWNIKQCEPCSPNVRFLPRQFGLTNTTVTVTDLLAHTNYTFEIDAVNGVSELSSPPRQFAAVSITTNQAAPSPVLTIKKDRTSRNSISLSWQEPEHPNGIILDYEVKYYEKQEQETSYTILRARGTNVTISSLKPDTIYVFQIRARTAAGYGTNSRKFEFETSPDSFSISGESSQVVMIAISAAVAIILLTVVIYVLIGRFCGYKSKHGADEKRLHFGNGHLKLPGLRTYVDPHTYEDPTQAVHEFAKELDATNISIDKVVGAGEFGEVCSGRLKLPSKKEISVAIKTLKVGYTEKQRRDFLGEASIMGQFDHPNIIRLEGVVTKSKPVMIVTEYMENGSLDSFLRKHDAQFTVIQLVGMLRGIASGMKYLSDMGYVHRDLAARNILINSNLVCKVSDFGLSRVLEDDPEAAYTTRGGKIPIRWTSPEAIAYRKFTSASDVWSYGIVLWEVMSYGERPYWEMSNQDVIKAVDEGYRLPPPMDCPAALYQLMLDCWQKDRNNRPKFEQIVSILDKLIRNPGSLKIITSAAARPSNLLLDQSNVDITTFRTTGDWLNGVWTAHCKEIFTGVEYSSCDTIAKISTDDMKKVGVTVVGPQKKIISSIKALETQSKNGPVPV

[7] = biological target: Death-associated protein kinase 3 (Homo sapiens) (UniProt O43293); assay: death-associated protein kinase 3 Millipore kinase panel; conditions: Compound concentration 10.0 uM
Death-associated protein kinase 3 (Homo sapiens), sequence (O43293 whole entry, looked up): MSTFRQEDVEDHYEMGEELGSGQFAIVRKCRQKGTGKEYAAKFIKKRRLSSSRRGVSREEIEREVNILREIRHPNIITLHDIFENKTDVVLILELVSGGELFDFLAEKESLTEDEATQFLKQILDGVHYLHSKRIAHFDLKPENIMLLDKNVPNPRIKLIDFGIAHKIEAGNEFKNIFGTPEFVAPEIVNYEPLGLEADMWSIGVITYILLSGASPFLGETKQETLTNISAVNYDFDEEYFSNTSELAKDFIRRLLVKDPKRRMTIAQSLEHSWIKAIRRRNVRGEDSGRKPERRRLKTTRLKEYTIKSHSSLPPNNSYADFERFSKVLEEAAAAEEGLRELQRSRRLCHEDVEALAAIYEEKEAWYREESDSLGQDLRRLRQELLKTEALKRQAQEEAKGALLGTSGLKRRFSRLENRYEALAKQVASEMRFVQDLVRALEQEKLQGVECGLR

[8] = biological target: T1, Alpha-1B adrenergic receptor (Homo sapiens) (UniProt P35368); assay: hAb1 Cerep panel; conditions: Compound concentration 10.0 uM
T1 sequence (whole entry): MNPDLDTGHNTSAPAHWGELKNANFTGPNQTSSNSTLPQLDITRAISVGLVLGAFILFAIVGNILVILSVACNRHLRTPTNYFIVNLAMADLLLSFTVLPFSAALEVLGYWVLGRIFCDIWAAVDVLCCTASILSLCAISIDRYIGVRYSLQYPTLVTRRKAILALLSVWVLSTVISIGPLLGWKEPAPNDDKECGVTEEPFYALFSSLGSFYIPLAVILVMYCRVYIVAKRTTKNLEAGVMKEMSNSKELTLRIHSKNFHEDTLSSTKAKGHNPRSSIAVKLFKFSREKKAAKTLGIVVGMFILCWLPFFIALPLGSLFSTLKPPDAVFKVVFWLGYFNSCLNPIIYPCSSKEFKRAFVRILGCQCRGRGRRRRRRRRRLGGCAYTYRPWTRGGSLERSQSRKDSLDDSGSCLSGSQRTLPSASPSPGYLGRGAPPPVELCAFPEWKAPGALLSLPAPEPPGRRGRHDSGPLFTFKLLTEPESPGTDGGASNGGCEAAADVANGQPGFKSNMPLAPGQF

[9] = biological target: Homeodomain-interacting protein kinase 1 (Homo sapiens) (UniProt Q86Z02); assay: homeodomain interacting protein kinase 1 Millipore kinase panel; conditions: Compound concentration 10.0 uM
[10] = biological target: Sodium-dependent dopamine transporter (Homo sapiens, UniProt Q01959); assay: hDAT Cerep panel; conditions: Compound concentration 10.0 uM
[11] = biological target: cAMP and cAMP-inhibited cGMP 3',5'-cyclic phosphodiesterase 10A (Mus musculus) (UniProt Q8CA95)
[12] = biological target: Receptor-type tyrosine-protein kinase FLT3 (Homo sapiens) (UniProt P36888); assay: fms-related tyrosine kinase 3 Millipore kinase panel; conditions: Compound concentration 10.0 uM
[13] = biological target: Tyrosine-protein kinase HCK (Homo sapiens) (UniProt P08631); assay: hemopoietic cell kinase Millipore kinase panel; conditions: Compound concentration 10.0 uM
[14] = biological target: Amine oxidase [flavin-containing] A (Homo sapiens, UniProt P21397); assay: hMAOA Cerep panel; conditions: 10 µM, compound concentration 10 uM
[15] = biological target: MAP kinase-activated protein kinase 3 (Homo sapiens) (UniProt Q16644); assay: mitogen-activated protein kinase-activated protein kinase 3 Millipore kinase panel; conditions: Compound concentration 10.0 uM
[16] = biological target: Phosphatidylinositol 4,5-bisphosphate 3-kinase catalytic subunit beta isoform (Homo sapiens) (UniProt P42338); assay: phosphoinositide-3-kinase, catalytic, beta polypeptide Millipore kinase panel; conditions: Compound concentration 10.0 uM
[17] = biological target: Muscarinic acetylcholine receptor M5 (Homo sapiens) (UniProt P08912); conditions: Compound concentration 10.0 uM
[18] = biological target: High affinity cGMP-specific 3',5'-cyclic phosphodiesterase 9A (Homo sapiens, UniProt O76083); assay: hPDE9A PDE scan
[19] = biological target: Macrophage colony-stimulating factor 1 receptor (Homo sapiens) (UniProt P07333); assay: colony stimulating factor 1 receptor Millipore kinase panel; conditions: Compound concentration 10.0 uM
[20] = biological target: Serine/threonine-protein kinase haspin (Homo sapiens) (UniProt Q8TF76); assay: germ cell associated 2 (haspin) Millipore kinase panel; conditions: Compound concentration 10.0 uM
Rattus norvegicus [21] = species on record: Rattus norvegicus; conditions: Compound concentration 10.0 uM
[22] = biological target: Mitogen-activated protein kinase 11 (Homo sapiens) (UniProt Q15759); assay: mitogen-activated protein kinase 11 Millipore kinase panel; conditions: Compound concentration 10.0 uM
[23] = biological target: cGMP-inhibited 3',5'-cyclic phosphodiesterase 3A (Homo sapiens, UniProt Q14432); assay: hPDE3A PDE scan
[24] = biological target: Serine/threonine-protein kinase PLK1 (Homo sapiens) (UniProt P53350); assay: polo-like kinase 1 Millipore kinase panel; conditions: Compound concentration 10.0 uM
Serine/threonine-protein kinase PLK1 (Homo sapiens), sequence (P53350 whole entry): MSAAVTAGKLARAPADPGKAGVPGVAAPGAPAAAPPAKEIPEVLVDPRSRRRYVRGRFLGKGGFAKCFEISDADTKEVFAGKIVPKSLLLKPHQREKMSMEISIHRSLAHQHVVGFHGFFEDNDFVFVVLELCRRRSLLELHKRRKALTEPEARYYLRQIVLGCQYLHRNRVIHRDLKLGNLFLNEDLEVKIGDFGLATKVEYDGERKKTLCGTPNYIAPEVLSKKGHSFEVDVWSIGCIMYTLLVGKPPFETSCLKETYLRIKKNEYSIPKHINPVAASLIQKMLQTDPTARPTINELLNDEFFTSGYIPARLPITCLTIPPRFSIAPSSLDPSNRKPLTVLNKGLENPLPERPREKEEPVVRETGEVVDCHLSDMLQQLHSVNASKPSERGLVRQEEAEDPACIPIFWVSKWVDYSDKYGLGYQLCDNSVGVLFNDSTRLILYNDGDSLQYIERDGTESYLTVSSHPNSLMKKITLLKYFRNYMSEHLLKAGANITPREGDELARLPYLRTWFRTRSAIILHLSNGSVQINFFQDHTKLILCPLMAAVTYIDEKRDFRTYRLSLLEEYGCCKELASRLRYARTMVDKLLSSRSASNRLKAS

[25] = biological target: MAP kinase-interacting serine/threonine-protein kinase 2 (Homo sapiens) (UniProt Q9HBH9); assay: MAP kinase interacting serine/threonine kinase 2 Millipore kinase panel; conditions: Compound concentration 10.0 uM
[26] = biological target: Glucocorticoid receptor (Homo sapiens) (UniProt P04150); assay: hGR Cerep panel; conditions: Compound concentration 10.0 uM
[27] = biological target: Eukaryotic elongation factor 2 kinase (Homo sapiens) (UniProt O00418); assay: eukaryotic elongation factor-2 kinase Millipore kinase panel; conditions: Compound concentration 10.0 uM
[28] = biological target: Insulin receptor-related protein (Homo sapiens) (UniProt P14616); assay: insulin receptor-related receptor Millipore kinase panel; conditions: Compound concentration 10.0 uM
Insulin receptor-related protein (Homo sapiens), sequence (P14616 27-742 limits assumed): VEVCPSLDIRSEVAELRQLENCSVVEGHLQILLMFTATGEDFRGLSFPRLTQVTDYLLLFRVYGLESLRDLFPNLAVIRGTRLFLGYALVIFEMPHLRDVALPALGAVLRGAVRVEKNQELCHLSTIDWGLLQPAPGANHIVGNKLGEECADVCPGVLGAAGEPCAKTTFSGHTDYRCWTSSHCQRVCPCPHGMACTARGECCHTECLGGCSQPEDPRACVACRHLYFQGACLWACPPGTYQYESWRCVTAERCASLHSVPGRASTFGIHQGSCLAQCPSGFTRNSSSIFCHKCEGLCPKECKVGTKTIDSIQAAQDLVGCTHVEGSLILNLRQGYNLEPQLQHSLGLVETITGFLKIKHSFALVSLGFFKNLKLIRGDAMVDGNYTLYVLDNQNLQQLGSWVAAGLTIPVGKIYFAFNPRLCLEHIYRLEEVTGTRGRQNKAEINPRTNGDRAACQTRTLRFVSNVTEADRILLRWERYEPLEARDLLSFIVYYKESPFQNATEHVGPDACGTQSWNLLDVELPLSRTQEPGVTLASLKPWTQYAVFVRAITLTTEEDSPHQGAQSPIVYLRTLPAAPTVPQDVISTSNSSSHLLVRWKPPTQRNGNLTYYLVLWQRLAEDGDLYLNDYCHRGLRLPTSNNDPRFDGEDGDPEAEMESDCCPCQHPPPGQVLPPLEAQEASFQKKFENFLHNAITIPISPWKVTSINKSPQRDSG
Insulin receptor-related protein (Homo sapiens), sequence (P14616 747-1297 limits assumed): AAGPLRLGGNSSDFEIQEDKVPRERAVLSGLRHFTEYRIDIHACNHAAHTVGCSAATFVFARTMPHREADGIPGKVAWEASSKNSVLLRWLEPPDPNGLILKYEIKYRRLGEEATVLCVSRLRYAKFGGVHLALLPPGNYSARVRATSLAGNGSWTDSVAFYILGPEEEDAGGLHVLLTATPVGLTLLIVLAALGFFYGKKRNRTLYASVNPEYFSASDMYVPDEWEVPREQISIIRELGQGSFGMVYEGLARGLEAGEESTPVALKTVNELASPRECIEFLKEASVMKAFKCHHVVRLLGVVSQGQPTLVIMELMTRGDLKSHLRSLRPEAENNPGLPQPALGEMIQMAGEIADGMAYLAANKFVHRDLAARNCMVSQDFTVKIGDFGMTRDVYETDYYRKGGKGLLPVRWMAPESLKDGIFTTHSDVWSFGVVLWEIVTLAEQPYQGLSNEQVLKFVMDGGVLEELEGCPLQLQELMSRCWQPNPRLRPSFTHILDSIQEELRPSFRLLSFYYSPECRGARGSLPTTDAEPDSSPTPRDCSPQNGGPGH

[29] = biological target: Protein kinase C alpha type (Homo sapiens) (UniProt P17252); assay: protein kinase C, alpha Millipore kinase panel; conditions: Compound concentration 10.0 uM
[30] = biological target: Serine/threonine-protein kinase 33 (Homo sapiens) (UniProt Q9BYT3); assay: serine/threonine kinase 33 Millipore kinase panel; conditions: Compound concentration 10.0 uM
Serine/threonine-protein kinase 33 (Homo sapiens), sequence (Q9BYT3 whole entry, looked up): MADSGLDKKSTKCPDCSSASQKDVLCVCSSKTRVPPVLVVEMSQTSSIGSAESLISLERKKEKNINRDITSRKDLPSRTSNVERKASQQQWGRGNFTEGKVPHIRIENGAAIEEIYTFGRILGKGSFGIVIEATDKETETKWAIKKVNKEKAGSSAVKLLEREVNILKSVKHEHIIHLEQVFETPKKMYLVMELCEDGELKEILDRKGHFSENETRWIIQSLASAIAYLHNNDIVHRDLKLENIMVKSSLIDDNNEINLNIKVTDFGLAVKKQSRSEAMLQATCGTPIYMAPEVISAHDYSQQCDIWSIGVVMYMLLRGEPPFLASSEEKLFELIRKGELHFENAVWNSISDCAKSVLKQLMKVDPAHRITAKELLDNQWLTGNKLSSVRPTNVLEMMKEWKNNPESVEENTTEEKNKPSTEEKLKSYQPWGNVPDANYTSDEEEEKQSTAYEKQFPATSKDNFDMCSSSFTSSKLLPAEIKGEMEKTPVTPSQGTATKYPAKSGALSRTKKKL

[31] = biological target: Death-associated protein kinase 1 (Homo sapiens) (UniProt P53355); assay: death-associated protein kinase 1 Millipore kinase panel; conditions: Compound concentration 10.0 uM
[32] = biological target: Fibroblast growth factor receptor 2 (Homo sapiens) (UniProt P21802); assay: fibroblast growth factor receptor 2 Millipore kinase panel; conditions: Compound concentration 10.0 uM
[33] = biological target: RAC-alpha serine/threonine-protein kinase (Homo sapiens) (UniProt P31749); assay: v-akt murine thymoma viral oncogene homolog 1 Millipore kinase panel; conditions: Compound concentration 10.0 uM
[34] = biological target: Interleukin-1 receptor-associated kinase 1 (Homo sapiens) (UniProt P51617); assay: interleukin-1 receptor-associated kinase 1 Millipore kinase panel; conditions: Compound concentration 10.0 uM
[35] = biological target: Dual specificity calcium/calmodulin-dependent 3',5'-cyclic nucleotide phosphodiesterase 1B (Homo sapiens, UniProt Q01064); assay: hPDE1B1 PDE scan
[36] = biological target: Translocator protein (Homo sapiens) (UniProt P30536); assay: hTSPO Cerep panel; conditions: Compound concentration 10.0 uM
[37] = biological target: Activated CDC42 kinase 1 (Homo sapiens) (UniProt Q07912); assay: tyrosine kinase, non-receptor, 2 Millipore kinase panel; conditions: Compound concentration 10.0 uM
Rattus norvegicus [38] = species on record: Rattus norvegicus; assay: rSKCa channel Cerep panel; conditions: Compound concentration 10.0 uM
[39] = biological target: Discoidin domain-containing receptor 2 (Homo sapiens) (UniProt Q16832); assay: discoidin domain receptor tyrosine kinase 2 Millipore kinase panel; conditions: Compound concentration 10.0 uM
[40] = biological target: Cyclin-dependent kinase 5/CDK5 activator 1 (Homo sapiens) (UniProt Q00535+Q15078); assay: cyclin-dependent kinase 5 / p25 Millipore kinase panel; type: protein-complex assay; conditions: Compound concentration 10.0 uM
[41] = biological target: Ephrin type-A receptor 4 (Homo sapiens) (UniProt P54764); assay: EPH receptor A4 Millipore kinase panel; conditions: Compound concentration 10.0 uM

Muscarinic acetylcholine receptor M5 (Homo sapiens), sequence (P08912 whole entry): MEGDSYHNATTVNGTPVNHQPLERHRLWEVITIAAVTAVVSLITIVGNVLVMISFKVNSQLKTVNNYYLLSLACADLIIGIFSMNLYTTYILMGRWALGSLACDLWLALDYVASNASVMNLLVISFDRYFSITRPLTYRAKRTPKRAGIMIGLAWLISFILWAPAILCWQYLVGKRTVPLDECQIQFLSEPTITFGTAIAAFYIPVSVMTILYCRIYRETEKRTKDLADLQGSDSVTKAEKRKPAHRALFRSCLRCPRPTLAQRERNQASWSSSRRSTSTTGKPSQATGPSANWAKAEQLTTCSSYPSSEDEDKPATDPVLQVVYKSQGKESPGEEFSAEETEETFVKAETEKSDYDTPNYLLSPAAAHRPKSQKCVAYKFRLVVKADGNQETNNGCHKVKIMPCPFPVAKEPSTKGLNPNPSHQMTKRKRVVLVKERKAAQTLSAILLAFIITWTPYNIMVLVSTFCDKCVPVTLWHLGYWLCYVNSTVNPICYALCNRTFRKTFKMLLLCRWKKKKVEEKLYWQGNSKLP

COCCc1ccc(-c2c(C)nc3c(N4CCOCC4)ccnn23)cn1 [JNJ-42396302]
effect [1]: -0.55% | inhibition [2]: 0% | Ki [3]: 46 µM | inhibition [4]: 5% | effect [5]: 8.95% | inhibition [6]: 4% | inhibition [7]: -2% | effect [8]: 6.55% | inhibition [9]: 11% | effect [10]: 4.5% | Increase in cAMP [11]: 10 fold | inhibition [12]: 6% | inhibition [13]: -2% | effect [14]: 13.8% | inhibition [15]: 3% | inhibition [16]: 1% | inhibition [17]: -1.98% | Ki [18]: 33 µM | inhibition [19]: 4% | inhibition [20]: 5% | inhibition (Rattus norvegicus [21]): 2.18% | inhibition [22]: -2% | Ki [23]: 49 µM | inhibition [24]: 0% | inhibition [25]: 10% | effect [26]: 1.9% | inhibition [27]: -2% | inhibition [28]: 10% | inhibition [29]: 15% | inhibition [30]: -1% | inhibition [31]: -2% | inhibition [32]: -5% | inhibition [33]: 35% | inhibition [34]: -3% | Ki [35]: 3.4 µM | effect [36]: 2.8% | inhibition [37]: 0% | effect (Rattus norvegicus [38]): 7.4% | inhibition [39]: -5% | inhibition [40]: 0% | inhibition [41]: 2%
